Like-named read-outs stand apart in the source and are kept apart here.
Tests used:
[1] = test system: U87 cells; test: Cell viability assay (PrestoBlue, 5 d) in U87 glioma cells; type: cell-based; settings: library screen, 5 d treatment, mean of three independent experiments in triplicates, read-out: EC50 U87 ± SEM
Method: (§1) The antiproliferative activity of a total of 100 compounds was tested against U87 and T98 glioma cell lines, using TMZ[3] and the Topoisomerase I inhibitor SN-38[18] as positive controls. Cells were treated with the library members for 5 d at three different concentrations (3, 30 and 300 µM) and cell viability determined using the PrestoBlue reagent. Half-maximal effective concentration (EC50) values were calculated from the corresponding dose-response curves and plotted in Fig. 2a as a heatmap to facilitate data analysis, with black meaning no activity and dark to light green to yellow transitions indicating decreasing EC50 values (=increasing potencies). Table 1 of the Suppl. Data contains the corresponding EC50 values ± SEM.
(§2) INK128 and SN-38 were used as positive controls. […] Structurally, these derivatives differed in the size of the alkyl group of the N1 position and the presence or absence of an oxygen atom in that moiety (see Suppl. Data).
(§3) U87 and T98 cells (ATCC) were cultured in DMEM (Gibco), supplemented with 10% (v/v) FBS (Gibco) and 2 mM L-Glutamine (Gibco) in a standard incubator (95% humidity, 5% CO2), and subcultured twice per week through trypsinization. G317 patient-derived glioma cells were established by the Glioma Cellular Genetics Resource (gcgr.org.uk) funded by Cancer Research UK. Ethics approval for use of patient-derived cells and early access confirmation to reagents from the Glioma Cellular Genetics Resource assured that all ethical issues according to UK legislation are fulfilled. G317 were cultured in DMEM/HAMS-F12 (Sigma) supplemented with 1.5 g L^−1 D-(+)-Glucose (Sigma), MEM non-essential aminoacids (Gibco), 0.015% (w/v) Penicillin-Streptomycin (Gibco), 0.012% (w/v) BSA (Gibco), 0.1 mM β-mercaptoethanol (Gibco), B27 (Gibco) and N2 supplements (Gibco). Cells were detached using accutase solution (Sigma) and subcultured once per week. Before adding to the cells, medium was supplemented with 10 ng ml^−1 mouse EGF (Preprotech), 10 ng ml^−1 human FGF (Preprotech), and 1 µg ml^−1 Laminin (Sigma).
(§4) 1 × 10^3 U87 cells/well, 5 × 10^2 T98 cells/well, 1 × 10^4 G317 cells/well, 1 × 10^4 HBVP cells/well and 1 × 10^4 bEnd3 cells/well were seeded in 96-well plates. After 48 h in culture, cells were treated with the inhibitors for 5 d. For GI50 determination, the viability of a triplicate sample of each experiment before treatment was measured with the PrestoBlue Reagent (Invitrogen), to establish a basepoint 0% of growth. […] ZIP Synergy scores were obtained with Synergy finder.[22] Viability percentage, EC50 and GI50 values were obtained using GraphPad Prism version 8.0.0 for Windows, GraphPad Software, San Diego, California USA, www.graphpad.com.

[2] = test system: T98 cells; test: Cell viability assay (PrestoBlue, 5 d) in T98 glioma cells; type: cell-based; settings: library screen, 5 d treatment, mean of three independent experiments in triplicates, read-out: EC50 T98 ± SEM
Method: as §1, §2, §3, §4

SMILES | EC50 [1] [µM] | EC50 [2] [µM] | EC50 ([1]; Homo sapiens, U-87 MG, 120 h) [µM] | EC50 ([2]; Homo sapiens, T98, 120 h) [µM]
Cc1ccc(-c2nn(CCN3CCOCC3)c3ncnc(N)c23)cc1 [eCF102] | > 30 | > 30 | – | –
Cc1ccc(-c2nn(CCN3CCN(C)CC3)c3ncnc(N)c23)cc1 [eCF103] | > 30 | > 30 | – | –
Cc1ccc(-c2nn(CCN3CCN(CCO)CC3)c3ncnc(N)c23)cc1 [eCF104] | > 30 | > 30 | – | –
Cc1ccc(-c2nn(CCN3CCN(CCN(C)C)CC3)c3ncnc(N)c23)cc1 [eCF105] | > 30 | > 30 | – | –
Cc1ccc(-c2nn(CCN3CCC(O)CC3)c3ncnc(N)c23)cc1 [eCF106] | > 30 | > 30 | – | –
Cc1ccc(-c2nn(CCN3CCC(CO)CC3)c3ncnc(N)c23)cc1 [eCF107] | > 30 | > 30 | – | –
Cc1ccc(-c2nn(CCN3CCC(N(C)C)CC3)c3ncnc(N)c23)cc1 [eCF109] | > 30 | 26.3 ± 7.3 | – | –
Cc1ccc(-c2nn(CCN3CCC(C)CC3)c3ncnc(N)c23)cc1 [eCF110] | > 30 | > 30 | – | –
Cc1ccc(-c2nn(CCN3CCCCC3)c3ncnc(N)c23)cc1 [eCF111] | > 30 | > 30 | – | –
Cc1ccc(-c2nn(CCN3CCC(CN(C)C)CC3)c3ncnc(N)c23)cc1 [eCF112] | 6.63 ± 1.44 | 6.28 ± 1.91 | – | –
Cc1ccc(-c2nn(CCN3CCC(CCN(C)C)CC3)c3ncnc(N)c23)cc1 [eCF113] | 6.74 ± 1.48 | 5.72 ± 1.95 | – | –
CCOC(Cn1nc(-c2ccc3ncccc3c2)c2c(N)ncnc21)OCC [eCF203] | > 30 | > 30 | – | –
CCOC(Cn1nc(-c2ccc(OC)c(OC)c2)c2c(N)ncnc21)OCC [eCF204] | > 30 | > 30 | – | –
CCOC(Cn1nc(-c2cccc(O)c2)c2c(N)ncnc21)OCC [eCF205] | > 30 | > 30 | – | –
CCOC(Cn1nc(-c2ccoc2)c2c(N)ncnc21)OCC [eCF206] | > 30 | > 30 | – | –
CCOC(Cn1nc(-c2cccc(NC(=O)OC(C)(C)C)c2)c2c(N)ncnc21)OCC [eCF207] | > 30 | > 30 | – | –
CCOC(Cn1nc(-c2cccc(C(N)=O)c2)c2c(N)ncnc21)OCC [eCF208] | > 30 | > 30 | – | –
CCOC(Cn1nc(-c2ccc(C(N)=O)cc2)c2c(N)ncnc21)OCC [eCF209] | > 30 | > 30 | – | –
CN(C)CC1CCN(CCn2nc(-c3ccc4[nH]ccc4c3)c3c(N)ncnc32)CC1 [eCF221] | 18.7 ± 4.91 | 16.8 ± 3.66 | – | –

SMILES | EC50 [1] [µM] | EC50 [2] [µM] | EC50 ([1]; Homo sapiens, U-87 MG, 120 h) [µM] | EC50 ([2]; Homo sapiens, T98, 120 h) [µM]
CN(C)CC1CCN(CCn2nc(-c3ccc4ncccc4c3)c3c(N)ncnc32)CC1 [eCF223] | > 30 | > 30 | – | –
COc1ccc(-c2nn(CCN3CCC(CN(C)C)CC3)c3ncnc(N)c23)cc1OC [eCF224] | > 30 | > 30 | – | –
CN(C)CC1CCN(CCn2nc(-c3cccc(O)c3)c3c(N)ncnc32)CC1 [eCF225] | > 30 | > 30 | – | –
CN(C)CC1CCN(CCn2nc(-c3ccoc3)c3c(N)ncnc32)CC1 [eCF226] | > 30 | > 30 | – | –
CN(C)CC1CCN(CCn2nc(C#Cc3ccccc3)c3c(N)ncnc32)CC1 [eCF230] | 18.2 ± 1.2 | 13.7 ± 1.84 | – | –
Nc1ncnc2c1c(-c1cnc3[nH]ccc3c1)nn2CC1OCCO1 [eCF307] | 11.3 ± 2.56 | 13.1 ± 2.65 | – | –
COC(Cn1nc(-c2cnc3[nH]ccc3c2)c2c(N)ncnc21)OC [eCF308] | – | – | 6.16 ± 1.22 | 7.34 ± 1.56
Nc1ncc(-c2ccc(-c3nn(CC4CCCC4)c4ncnc(N)c34)cc2)o1 [eCF341] | 20.3 ± 2.63 | 26.2 | – | –
CN(C)C1CCN(CCn2nc(-c3cnc4[nH]ccc4c3)c3c(N)ncnc32)CC1 [eCF502] | 15.2 ± 2.36 | 17.6 ± 3.93 | – | –
COc1cc(-c2nn(CCN3CCC(N(C)C)CC3)c3ncnc(N)c23)ccc1NC(=O)OC(C)(C)C [eCF506] | – | – | 13.6 ± 0.809 | 9.97 ± 4.88
COc1cc(-c2nn(CCN3CCC(N4CCCC4)CC3)c3ncnc(N)c23)ccc1NC(=O)OC(C)(C)C [eCF518] | 12 ± 0.168 | 3.48 ± 0.567 | – | –
COc1cc(-c2nn(CCN3CCC(N4CCCCC4)CC3)c3ncnc(N)c23)ccc1NC(=O)OC(C)(C)C [eCF519] | 17 ± 2.37 | 3.14 ± 0.331 | – | –
COc1cc(-c2nn(CCN3CCC(N(C)C)CC3)c3ncnc(N)c23)ccc1NC(=O)CC(C)(C)C [eCF526] | > 30 | > 30 | – | –
COc1cc(-c2nn(CCN3CCC(N(C)C)CC3)c3ncnc(N)c23)ccc1NC(=O)Cc1ccccc1 [eCF530] | > 30 | 22.8 ± 3.21 | – | –
COc1cc(-c2nn(CCN3CCC(N(C)C)CC3)c3ncnc(N)c23)ccc1NC(=O)CCc1ccccc1 [eCF531] | 22.6 ± 5.38 | 11.1 ± 1.1 | – | –
COc1cc(-c2nn(CCN3CCC(N(C)C)CC3)c3ncnc(N)c23)ccc1NC(=O)Oc1ccccc1 [eCF532] | 29.2 ± 3.88 | 9.1 ± 1.37 | – | –
COc1cc(-c2nn(CCN3CCC(N(C)C)CC3)c3ncnc(N)c23)ccc1NC(=O)OCc1ccccc1 [eCF533] | 8.22 ± 0.671 | 3.79 ± 0.519 | – | –
COc1cc(-c2nn(CCN3CCC(N(C)C)CC3)c3ncnc(N)c23)ccc1NC(=O)Oc1ccccc1 [eCF535] | > 30 | 16.7 ± 2.8 | – | –
COc1cc(-c2nn(CCN3CCC(N(C)C)CC3)c3ncnc(N)c23)ccc1NC(=O)NC(C)(C)C [eCF537] | > 30 | 17.6 ± 3.24 | – | –

SMILES | EC50 [1] [µM] | EC50 [2] [µM] | EC50 ([1]; Homo sapiens, U-87 MG, 120 h) [µM] | EC50 ([2]; Homo sapiens, T98, 120 h) [µM]
COc1cc(-c2nn(CCN3CCC(N(C)C)CC3)c3ncnc(N)c23)ccc1NC(=O)NC(C)(C)C [eCF540] | > 30 | 24.8 ± 2.68 | – | –
CN(C)C1CCN(CCn2nc(-c3cccc(NC(=O)OC(C)(C)C)c3)c3c(N)ncnc32)CC1 [eCF542] | > 30 | > 30 | – | –
CN(C)C1CCN(CCn2nc(-c3ccc(NC(=O)OC(C)(C)C)cc3)c3c(N)ncnc32)CC1 [eCF543] | > 30 | 11.4 ± 1.44 | – | –
CN(C)C1CCN(CCn2nc(-c3ccc4c(ccn4C(=O)OC(C)(C)C)c3)c3c(N)ncnc32)CC1 [eCF548] | 7.18 ± 1.5 | 6.87 ± 1.77 | – | –
CN(C)C1CCN(CCn2nc(-c3ccc(NC(=O)OC(C)(C)C)nc3)c3c(N)ncnc32)CC1 [eCF549] | > 30 | > 30 | – | –
CN(C)C1CCN(CCn2nc(-c3ccc(CC(=O)OC(C)(C)C)cc3)c3c(N)ncnc32)CC1 [eCF553] | > 30 | 6.58 ± 2.18 | – | –
CN(C)C1CCN(CCn2nc(-c3ccc(CC(=O)O)cc3)c3c(N)ncnc32)CC1 [eCF556] | > 30 | > 30 | – | –
COc1ccc(-c2nn(CCN3CCC(N(C)C)CC3)c3ncnc(N)c23)cc1NC(=O)OC(C)(C)C [eCF558] | > 30 | > 30 | – | –
CN(C)C1CCN(CCn2nc(-c3ccc(NC(=O)OC(C)(C)C)c(O)c3)c3c(N)ncnc32)CC1 [eCF562] | > 30 | > 30 | – | –
COc1cc(-c2nn(CCN3CCC(N(C)C)CC3)c3ncnc(N)c23)ccc1NCc1ccccc1 [eCF575] | > 30 | > 30 | – | –
CN(C)C1CCN(CCn2nc(-c3ccc(NCc4ccccn4)cc3)c3c(N)ncnc32)CC1 [eCF576] | > 30 | > 30 | – | –
COc1cc(-c2nn(CCN3CCC(N(C)C)CC3)c3ncnc(N)c23)ccc1NC(=O)OC(C)(C)C [eCF581] | > 30 | > 30 | – | –
COc1cc(-c2nn(CCN3CCC(N4CCCC4)CC3)c3ncnc(N)c23)ccc1NC(=O)OC(C)(C)C [eCF598] | > 30 | 16.4 ± 9.53 | – | –
COc1cc(-c2nn(CCN3CCC(N4CCCCC4)CC3)c3ncnc(N)c23)ccc1NC(=O)OC(C)(C)C [eCF599] | > 30 | 23 ± 13.4 | – | –
CN(C)C1CCN(CCn2nc(-c3ccc(CC#N)cc3)c3c(N)ncnc32)CC1 [eCF600] | > 30 | > 30 | – | –
COc1cc(-c2nn(CCN3CCCC(N(C)C)C3)c3ncnc(N)c23)ccc1NC(=O)OC(C)(C)C (stereo not shown) [eCF603] | > 30 | > 30 | – | –
COc1cc(-c2nn(CCN3CCC(N(C)C)CC3)c3ncnc(N)c23)ccc1NC(=O)N(C)C(C)(C)C [eCF608] | 21.1 ± 3.02 | 14.4 ± 7.53 | – | –
CNc1ncc2c(-c3ccc(OC)c(OC)c3)nn(CC3CCCC3)c2n1 [eSM104] | > 30 | 17.5 ± 2.14 | – | –

From PMC6961122 (Bioorganic & Medicinal Chemistry, 2020)
